Laboratory results: PubChem BioAssay (NCI)
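Cells were grown in 96-well plates and exposed to each compound for 48 hours at five concentrations; endpoints were interpolated linearly between bracketing concentrations, or set to the highest concentration if not reached. GI50 marks 50% less growth. TGI is the concentration that stops growth completely.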

Tests used:
Test in all cases: NCI-60 cell line screen, 48 h
[1] = tested on: MDA-MB-435
[2] = tested on: SN12C renal
[3] = tested on: NCI/ADR-RES ovarian
[4] = tested on: UO-31 renal
[5] = tested on: SK-OV-3 ovarian
[6] = tested on: COLO 205 colon
[7] = tested on: OVCAR-8 ovarian
[8] = tested on: HCC-2998 colon
[9] = tested on: MALME-3M melanoma
[10] = tested on: HCT-116 colon
[11] = tested on: OVCAR-5 ovarian
[12] = tested on: M14 melanoma
[13] = tested on: HS 578T breast
[14] = tested on: A549 NSCLC
[15] = tested on: 786-0 renal
[16] = tested on: U251 CNS
[17] = tested on: HOP-92 NSCLC
[18] = tested on: TK-10 renal
[19] = tested on: SK-MEL-5 melanoma
[20] = tested on: SF-268 CNS
[21] = tested on: SW-620 colon
[22] = tested on: DU-145 prostate
[23] = tested on: NCI-H226 lung
[24] = tested on: MCF7 breast
[25] = tested on: A498 renal
[26] = tested on: SNB-75 CNS
[27] = tested on: ACHN renal
[28] = tested on: SNB-19 CNS
[29] = tested on: RPMI-8226 leukemia

In the case of `S=C(Nc1ccccc1)c1ccccn1`, the GI50 [1] was 80.6 µM, the TGI [1] was > 100 µM and the GI50 [2] was 95.9 µM. The TGI [2] was > 100 µM, the GI50 [3] was 52.1 µM and the TGI [3] was > 100 µM. The GI50 [4] was 25.5 µM, the TGI [4] was > 100 µM and the GI50 [5] was > 100 µM. The TGI [5] was > 100 µM, the GI50 [6] was 9.34 µM and the TGI [6] was > 100 µM. The GI50 [7] was 75.3 µM, the TGI [7] was > 100 µM and the GI50 [8] was > 100 µM. For the same compound, the TGI [8] was > 100 µM, the GI50 [9] was > 100 µM and the TGI [9] was > 100 µM. For the same compound, the GI50 [10] was 51.3 µM, the TGI [10] was > 100 µM and the GI50 [11] was > 100 µM. For the same compound, the TGI [11] was > 100 µM, the GI50 [12] was 28 µM and the TGI [12] was 97.1 µM. The GI50 [13] was > 100 µM, the TGI [13] was > 100 µM and the GI50 [14] was > 100 µM. For the same compound, the TGI [14] was > 100 µM, the GI50 [15] was > 100 µM and the TGI [15] was > 100 µM. The GI50 [16] was 38 µM, the TGI [16] was > 100 µM and the GI50 [17] was 54.3 µM. The TGI [17] was > 100 µM, the GI50 [18] was > 100 µM and the TGI [18] was > 100 µM. The GI50 [19] was 69.2 µM, the TGI [19] was > 100 µM and the GI50 [20] was 77.3 µM. For the same compound, the TGI [20] was > 100 µM, the GI50 [21] was 59.4 µM and the TGI [21] was > 100 µM. The GI50 [22] was 53 µM, the TGI [22] was > 100 µM and the GI50 [23] was > 100 µM. The TGI [23] was > 100 µM, the GI50 [24] was > 100 µM and the TGI [24] was > 100 µM. For the same compound, the GI50 [25] was > 100 µM, the TGI [25] was > 100 µM and the GI50 [26] was 54.5 µM. For the same compound, the TGI [26] was > 100 µM, the GI50 [27] was 50.6 µM and the TGI [27] was > 100 µM. For the same compound, the GI50 [28] was > 100 µM, the TGI [28] was > 100 µM and the GI50 [29] was 41.7 µM. The TGI [29] was > 100 µM.
